Assays:
eye [1] = assay: Eye irritation test (Draize method, evaluated by method of Kay and Calandra); format: in vivo, male Japanese rabbit; parameters: key: Draize irritation scores per Kay–Calandra method, mean of 4 rabbits
Experimental: The irritation to the eyes caused by relatively highly concentrated solutions of the compounds of the invention was determined by the Draize method [J. H. Draize et al. J. Pharmacol. Exp. Ther., 82, 377 (1944)] and evaluated by the method of Kay and Calandra [J. H. Kay and J. C. Calandra, J. Soc. Cosmet. Chem., 13, 281 (1962)].
The test solution employed in the present experiment was a simple solution of 10% or 20% by weight of the test compound dissolved in distilled water for injections and adjusted to pH 7 to 8 as required.
Specifically, a male Japanese rabbit of body weight 2.5-3.0 kg was placed in a pillory to fix its head. A single dose of 0.1 ml of the test solution was instilled into its right eye. The symptoms experienced by the anterior portion of the right eye were observed over a period of seven days and the irritation observed was scored. The results are shown in Table 2, in each case averaged over the four rabbits in each test group.

[2] = result in words; cited from earlier work
eye [3] = conditions: cited from earlier work
[4] = Acute toxicity, oral administration; parameters: species or system RFVL type mice; conditions: mouse, in vivo

SMILES	Average irritation score, average (eye [1]; 10% solution, 0.1 ml, 1 hour)	Average irritation score, conjunctiva (eye [1]; 10% solution, 0.1 ml, 1 hour)	Average irritation score, cornea (eye [1]; 10% solution, 0.1 ml, 1 hour)	Average irritation score, iris (eye [1]; 10% solution, 0.1 ml, 1 hour)	Average irritation score, average (eye [1]; 10% solution, 0.1 ml, 24 hours)	Average irritation score, conjunctiva (eye [1]; 10% solution, 0.1 ml, 24 hours)	Average irritation score, cornea (eye [1]; 10% solution, 0.1 ml, 24 hours)	Average irritation score, iris (eye [1]; 10% solution, 0.1 ml, 24 hours)	Average irritation score, average (eye [1]; 10% solution, 0.1 ml, 48 hours)	Average irritation score, conjunctiva (eye [1]; 10% solution, 0.1 ml, 48 hours)	Average irritation score, cornea (eye [1]; 10% solution, 0.1 ml, 48 hours)	Average irritation score, iris (eye [1]; 10% solution, 0.1 ml, 48 hours)	Average irritation score, average (eye [1]; 10% solution, 0.1 ml, 72 hours)	Average irritation score, conjunctiva (eye [1]; 10% solution, 0.1 ml, 72 hours)	Average irritation score, cornea (eye [1]; 10% solution, 0.1 ml, 72 hours)	Average irritation score, iris (eye [1]; 10% solution, 0.1 ml, 72 hours)	Average irritation score, average (eye [1]; 10% solution, 0.1 ml, 96 hours)	Average irritation score, conjunctiva (eye [1]; 10% solution, 0.1 ml, 96 hours)	Average irritation score, cornea (eye [1]; 10% solution, 0.1 ml, 96 hours)	Average irritation score, iris (eye [1]; 10% solution, 0.1 ml, 96 hours)	also measured
CC(C(=O)[O-])c1ccc(C[C@@H]2CCC[C@H]2O)cc1.[Na+] (relative stereo)	1.3	1.3	0	0	0	0	0	0	0	0	0	0	0	0	0	0	0	0	0	0	Average irritation score, average (eye [1]; 10% solution, 0.1 ml, 7 days): 0; Average irritation score, conjunctiva (eye [1]; 10% solution, 0.1 ml, 7 days): 0; Average irritation score, cornea (eye [1]; 10% solution, 0.1 ml, 7 days): 0; Average irritation score, iris (eye [1]; 10% solution, 0.1 ml, 7 days): 0
COC(=O)c1ccccc1O [methyl salicylate]	–	–	–	–	–	–	–	–	–	–	–	–	–	–	–	–	–	–	–	–	toxicity for internal administration [2]: too toxic for internal administration
CC(C(=O)[O-])c1ccc(C=C2CCCCC2=O)cc1.[Na+] (stereo not shown) [Compound B, sodium 2-[4-(2-oxocyclohexylidenemethyl)phenyl]propionate]	1.3	1.3	0	0	0	0	0	0	0	0	0	0	0	0	0	0	0	0	0	0	Average irritation score, average (eye [1]; 10% solution, 0.1 ml, 7 days): 0; Average irritation score, conjunctiva (eye [1]; 10% solution, 0.1 ml, 7 days): 0; Average irritation score, cornea (eye [1]; 10% solution, 0.1 ml, 7 days): 0; Average irritation score, iris (eye [1]; 10% solution, 0.1 ml, 7 days): 0
CCCCC1C(=O)N(c2ccccc2)N(c2ccccc2)C1=O [phenylbutazone]	–	–	–	–	–	–	–	–	–	–	–	–	–	–	–	–	–	–	–	–	adverse effects upon the eye reported in the literature (eye [3]): conjunctivitis, toxic amblyopia, Stevens-Johnson syndrome, adhesion of lids to eyeballs, gross scarring of lids, corneal ulceration and scarring, vascularisation of the cornea, loss of vision and possible retinal haemorrhage
CC(C(=O)[O-])c1ccc(CC2CCCC2=O)cc1.[Na+] (stereo not shown)	–	–	–	–	–	–	–	–	–	–	–	–	–	–	–	–	–	–	–	–	Average irritation score, cornea (eye [1]; rabbit, in vivo): 0; Average irritation score, iris (eye [1]; rabbit, in vivo): 0; LD50 ([4]; female mice): 3150 mg/kg; LD50 ([4]; male mice): 3030 mg/kg
CC(C)Cc1ccc(C(C)C(=O)O)cc1 (stereo not shown) [Ibuprofen, ibuprofen]	–	–	–	–	–	–	–	–	–	–	–	–	–	–	–	–	–	–	–	–	adverse effects upon the eye reported in the literature (eye [3]): a variety of visual defects, including toxic amblyopia

Reference: patent US4599360A, “Ophthalmic anti-inflammatory agents” (Sankyo Company Limited, priority 1983, dated 1986)
